Laboratory results: patent publication US4788063A, “Drug delivery system” (priority 1984, dated 1988)

Tests used:
[1] = system: Whole blood cholinesterase; test: whole blood cholinesterase after dermal application or intramuscular injection in pigs; format: in vivo; conditions: intramuscular injection, pigs (FIG. 1)
Description: (§1) Laboratory animal species used throughout this study consisted of albino guinea pigs of either sex of a local strain, (Dunkin-Hadley origin), weighing between 300-400 g, and female pigs of the large White and Lundrace strain, 8-12 weeks of age, weighing 8-14 kg.
(§2) At 30 minutes prior to dermal application of test solutions, the hair at the test sites was closely clipped. Only animals in which the skin at the test sites appeared grossly normal and was free of bites, scratches or bruises, were selected for the study.
(§3) Treatment solutions for dermal application were freshly prepared and applied to a pre-determined area of a commercially available pad, (micropad dressing 3M No. 1610, U.S. Pat. No. 3,285,245) which in turn was secured to dorsal test-sites by an adhesive bandage, serving at the same time as an occlusive dressing. […] Intervals between bleedings were 2 hours in guinea pigs, and 30 minutes in pigs.
(§4) Cholinesterase Determinations: Whole blood cholinesterase activity was determined by the method of Ellman [G.L. Ellman et al, Biochem. Pharmacol. 7, 83 (1961)], or by that described by Johnson and Russell [C.D. Johnson and R. L. Russell, Anal Biochem 64, 229 (1975)]. Data obtained in experimental animals (guinea pigs and pigs) show a remarkable prolonging of the duration of action of the dermally applied drug when compared with systemic administration.

[2] = system: Whole blood cholinesterase; test: whole blood cholinesterase after dermal application or injection in guinea pigs; format: in vivo; conditions: injection, guinea pigs (FIG. 2)
Description: as §1, §2, §3, §4

memory disorders = conditions: SDAT patients, intravenous infusion at a rate of 3.4-14 μg/kg. hr; cited from earlier work

## CNC(=O)Oc1ccc2c(c1)[C@]1(C)CCN(C)[C@@H]1N2C [physostigmine]
[1]
  duration of the effect: 2 to 3 h
[2]
  duration of the effect: 2 to 3 h
Memory disorders
  effect on memory disorders: improvement in memory disorders
